Patent US20070161644A1, “Erastin analogs and uses thereof” (priority 2005, published 2007)
Where two headings read alike, the source gives them in different places.

Key:
PC-3 = experiment: Sytox screen, tumor cell line panel; format: cell-based; details: Homo sapiens, Prostate, read-out: IC 50, PC-3
DLD-1 = experiment: Sytox screen, tumor cell line panel; format: cell-based; details: Homo sapiens, Colon, K-ras G13D mutation, wt B-raf, read-out: IC 50, DLD-1
HOP-92 = experiment: Sytox screen, tumor cell line panel; format: cell-based; details: Homo sapiens, Non-Small Cell Lung, Wt ras, read-out: IC 50, HOP-92
OVCAR-5 = experiment: Sytox screen, tumor cell line panel; format: cell-based; details: Homo sapiens, Ovarian, K-ras G12V, read-out: IC 50, OVCAR-5
MCF7 = experiment: Sytox screen, tumor cell line panel; format: cell-based; details: Homo sapiens, Breast, activated pathway, read-out: IC 50, MCF7
BT-549 = experiment: Sytox screen, tumor cell line panel; format: cell-based; details: Homo sapiens, Breast, activated pathway, read-out: IC 50, BT-549
SK-MEL-28 = experiment: Sytox screen, tumor cell line panel; format: cell-based; details: Homo sapiens, Melanoma, B-raf V600E mut, ras wt, read-out: IC 50, SK-MEL-28
MALME-3M = experiment: Sytox screen, tumor cell line panel; format: cell-based; details: Homo sapiens, Melanoma, B-raf V600E mut, ras wt, read-out: IC 50, MALME-3M
BJELR = experiment: Sytox primary screen; format: cell-based; details: Homo sapiens
Text: The Sytox primary screen is a phenotypic assay which monitors alterations in cell survival-proliferation as a result of compound treatment. It was devised as high throughput method to identify compounds which specifically alter the growth potential of cells harboring the causative mutations found in cancer patients while not affecting the growth of normal cells.
The assay relies upon an inexpensive, simple and reliable readout of a membrane impermeable fluorescent dye (Sytox, from Molecular Probes) which binds to nucleic acid. In healthy cells, no signal is detected because the cell's membrane is intact and the dye will not enter. However, if a cell's membrane is compromised as a result of apoptosis or necrosis, a fluorescent signal proportional to the number of similarly affected cells will be detected. By utilizing a two-step readout (final read in the presence of detergent to permit labeling of all cells), the assay can identify compounds which produce cytostasis, cytotoxicity and/or mitogenesis. The first read or “dead cell” read provides an estimate of the toxicity of a given compound by indicating the number of dead or dying cells in the culture at the time of assay. The second read or “total cell” read captures both the cumulative effects of cytoxicity in reducing the size of the cell population as well as any cytostatic or anti-proliferative effects a test compound may exert on the cells in the test population in the absence of toxicity.
For the purpose of screening, the previously described BJ-TERT line was defined as the “normal” reference cell line and BJ-TERT/LT/ST/RAS^V12 cells were the tumorigenic cell line. Cells were seeded overnight in 96 well plates at densities which without treatment would permit 95% confluence in the wells 72 H later. The following day, the cells were exposed to test compounds in a dilution series for a period of 48 hours. Following this incubation period, the Sytox reagent was added to the cultures at the manufacturer's recommended concentration and the dead cell fluorescence read was taken. After completion of this measurement, the detergent Saponin was added to each well of the cultures to permeabilize the membranes allowing the Sytox reagent to enter every cell thereby, facilitating measurement of the total number of cells remaining in the culture.

HOP-62 = experiment: Sytox screen, tumor cell line panel; format: cell-based; details: Homo sapiens, Non-Small Cell Lung, K-ras G12V, read-out: IC 50, HOP-62
SK-MEL-5 = experiment: Sytox screen, tumor cell line panel; format: cell-based; details: Homo sapiens, Melanoma, B-raf V600E mut heterozygote, read-out: IC 50, SK-MEL-5
HT1080 = experiment: Sytox screen, tumor cell line panel; format: cell-based; details: Homo sapiens, HT-1080; fibrosarcoma; n-ras mutation; read-out: IC 50, HT1080
PANC-1 = experiment: Sytox screen, tumor cell line panel; format: cell-based; details: Homo sapiens, Pancreatic, K-ras V12 mutant, read-out: IC 50, PANC-1
OVCAR-3 = experiment: Sytox screen, tumor cell line panel; format: cell-based; details: Homo sapiens, Ovarian, K-ras amplification, read-out: IC 50, OVCAR-3
HT-1080 xenografts = experiment: HT-1080 tumor treatment study; format: in vivo, mouse; details: nude Balb/c mice; 100 or 50 mg/Kg, QD×5 days, IP
Description: Nude Balb/c (Nu/Nu strain, Charles River Laboratories), female, 5-6 week. old (˜20 g average body weight).
Both compounds were formulated in an identical manner. For the 100 mg/kg dose level, each compound was delivered at a concentration of 10.0 mg/ml, in an injection volume of 0.2 ml. For the 50 mg/kg dose level, each compound was delivered at a concentration of 5.0 mg/ml, in an injection volume of 0.2 ml. For both dose levels, the vehicle contained 0.025% Tween-80, 0.01% benzyl alcohol, 35 mM acetic acid (HOAc), 100 mM potassium phosphate buffer, and 32 mM sucrose, pH=6.5.
Beginning when the mean tumor volume reached ˜200 mm^3, and continuing through day 5, every day, each animal was administered a single IP injection of one of the above treatments, for a total of 5 doses.
Each of 70 mice was implanted with 1×10^7 HT-1080 cells by SC injection of 0.1 cc of inoculum into the right hind flank. A 25 G×⅝″ needle size was used. […]
Starting on Day 1, all animals were weighed, and tumor dimensions (length (L) and width (W)) were measured, every other day. […]
The resulting tumor volume values were averaged for each study group for each time point, and were then plotted against time. Variance was expressed as standard error of the mean (±SEM).

SK-OV-3 = experiment: Sytox screen, tumor cell line panel; format: cell-based; details: Homo sapiens, Ovarian, read-out: IC 50, SK-OV-3
DU-145 = experiment: Sytox screen, tumor cell line panel; format: cell-based; details: Homo sapiens, Prostate, Wt ras, read-out: IC 50, DU-145
HCT116 = experiment: Sytox screen, tumor cell line panel; format: cell-based; details: Homo sapiens, HCT-116; Colon; K-ras G12D; read-out: IC 50, HCT116
PANC-1 xenografts = experiment: PANC-1 tumor treatment study; format: in vivo; details: immunodeficient nude mouse; once a day for five consecutive days
Description: The experimental plan for the PANC-1 study was essentially identical to that of the HT-1080 study outlined above in Example 10 with the following exceptions: approximately 30-40 mg fragment of passaged PANC-1 tumor tissue was implanted subcutaneously in the right flank of an immunodeficient nude mouse. Tumor growth was monitored daily and when the tumors reached approximately 100 mm^3, animals harboring similarly sized tumors were group matched and compound dosing was initiated. Administration of compound 5 occurred once a day for five consecutive days at the doses listed below. In the PANC-1 xenografts, gemcitabine, administered at the maximum tolerated dose for the model, was used as a control. The gemcitabine regimen was 180 mg/kg […] on every third day over a period of 9 days.

MIA-PaCa-2 = experiment: Sytox screen, tumor cell line panel; format: cell-based; details: Homo sapiens, Pancreatic, K-ras mutant (G12C), read-out: IC 50, MIA-PaCa-2

For `CCOc1ccccc1-n1c(CN2CCNCC2)nc2ccccc2c1=O` [Compound 5, 3-(2-ethoxyphenyl)-2-(piperazin-1-ylmethyl)quinazolin-4(3H)-one], the IC50 (PC-3) was ≥ 1000 nM, the IC50 (DLD-1) was ≥ 100 nM and the IC50 (HOP-92) was ≥ 1000 nM. For the same molecule, the IC50 (OVCAR-5) was < 100 nM, the IC50 (MCF7) was ≥ 1000 nM and the IC50 (BT-549) was ≥ 100 nM. The IC50 (SK-MEL-28) was ≥ 100 nM, the IC50 (MALME-3M) was ≥ 100 nM and the IC50 (BJELR; Sytox screen, 48 hours, read-out: IC50 in BJELR) was < 100 nM. For the same molecule, the IC50 (BJELR; fibroblast, primary, ras V12 mutation, read-out: IC 50, BJELR) was < 100 nM, the IC50 (HOP-62) was ≥ 100 nM and the IC50 (SK-MEL-5) was ≥ 100 nM. For the same molecule, the IC50 (HT1080) was < 100 nM, the IC50 (PANC-1) was < 100 nM and the IC50 (OVCAR-3) was ≥ 100 nM. The “antitumor activity in HT-1080 xenografts” value (HT-1080 xenografts) was “robust tumor regression”, the IC50 (SK-OV-3) was ≥ 100 nM and the IC50 (DU-145) was ≥ 100 nM. The IC50 (HCT116) was ≥ 100 nM, the “antitumor activity in PANC-1 xenografts” value (PANC-1 xenografts) was “tumor regression” and the IC50 (MIA-PaCa-2) was ≥ 1000 nM.
